In PMC8069832, “New Amides and Phosphoramidates Containing Selenium: Studies on Their Cytotoxicity and Antioxidant Activities in Breast Cancer” (Antioxidants, 2021):
Read-outs that look alike come from different tables or passages of the source.

Tests used:
MCF-7 [1] = assay: Autophagy and caspase inhibition assays (wortmannin, Z-VAD-FMK pretreatment); type: cell-based, human; conditions: I.1f 80 µM 72 h, I.2f 30 µM 24 h, II.2d 20 µM 24 h; for Compound-induced cell death after preincubation with wortmannin: 100 nM wortmannin 1 h; for Compound-induced cell death after preincubation with Z-VAD-FMK: 50 µM Z-VAD-FMK 1 h
Description: For autophagy and caspase inhibition assays, cells were pretreated with 100 nM of autophagy inhibitor (wortmannin, Santa Cruz) and 50 µM of pan-caspase inhibitor (Z-VAD-FMK, BD Pharmingen) for 1 h. The cells were treated with the compounds I.2f (30 µM) and II.2d (20 µM) for 24 h and I.1f (80 µM) for 72 h. Samples were processed following the same methodology stated above. DMSO was used as a negative control for both inhibitors.
Apoptosis and autophagy are considered as two recognized pathways for anticancer agents due to their effects on cell survival. In the next step, in order to investigate whether the cell death pathway is related to apoptosis or autophagy, we explored the effect of pre-treated cells with either an autophagy inhibitor (wortmannin) or a pan-caspase inhibitor (Z-VAD-FMK). According to the previous results, determinations were performed after treatment with 80 μM of I.1f for 72 h, 30 μM of I.2f for 24 h and 20 μM of II.2d for 24 h.

MCF-7 [2] = assay: cells; conditions: Homo sapiens, MCF7, 48 h; for activity at 10 µM: read-out: Cell growth (%) MCF-7; for GI50: read-out: GI50 MCF-7, 48 h, average ± SEM; for CC50: read-out: LC50 MCF-7; for IC (TGI): read-out: TGI MCF-7
MCF-7 [3] = conditions: read-out: GI50 MCF-7; 48 h, average ± SEM
184B5 = assay: MTT cytotoxicity in nonmalignant mammary gland derived cells; type: cell-based; conditions: for GI50 / IC (TGI): Homo sapiens; for GI50: read-out: GI50 184B5; for IC (TGI): read-out: TGI 184B5
Summary of the method: (§1)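 184B5 cells grown in supplemented DMEM/F12, BEAS-2B in RPMI with 10% FBS. 1 × 10^4 cells/well exposed to increasing compound concentrations for 48 h at 37 °C, 5% CO2, then MTT 4 h and formazan dissolved in DMSO. At least 3 independent experiments in quadruplicate; cisplatin as reference.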

[4] = as above; type: cell-based; conditions: human
Summary of the method: as §1

MCF-7 [5] = assay: Cell death (subdiploid cells), Apo-Direct kit TUNEL flow cytometry; type: cell-based, human; conditions: 24 h, increasing doses (I.1f 10 to 80 µM)
Description: For the MCF-7 cell line, both cell cycle analysis and the cell death percentage were determined using the Apo-Direct kit (BD Pharmingen) based on the TUNEL technique, according to the manufacturer’s instructions. Cells were seeded in 25 cm^2 flasks (3 × 10^6 for 24 h of treatment, 2 × 10^6 for 48 h and 10^6 for 72 h) treated with DMSO (negative control), 6 µM of camptothecin (positive control) and different concentrations of I.1f, I.2f and II.2d.
After treatment, cells were collected and fixed with 1% paraformaldehyde (Sigma) in PBS (pH = 7.4), incubated in ice for 40 min, collected by centrifugation, washed with PBS and incubated with 70% ethanol for 30 min at −20 °C. After fixation, cells were washed twice with PBS and incubated for 1 h at 37 °C with FITC dUTP-DNA Labeling Solution. Cells were then rinsed and incubated in the dark for 30 min at room temperature with PI/RNase staining buffer before being analyzed by flow cytometry (Coulter Epics XL, Beckman Coulter Flow cytometer). Then, cells were treated with compounds I.1f (80 µM), I.2f (30 µM) and II.2d (5 µM) at different times (from 8 to 72 h) following the same methodology.
Apoptosis and cell cycle arrest are typical mechanisms of action for many anticancer drugs, including selenocompounds [34, 35, 36]. In a first approach, the effect of the selected compounds on cell cycle progression and the induction of apoptosis was studied in MCF-7 cell cultures. Analyses were performed by flow cytometry using the Apo-Direct kit, based on the TUNEL technique under the conditions described by the manufacturer. The cells were treated with the corresponding compound at different concentrations and time points. Camptothecin was used as a positive control at 6 µM.

[6] = nonmalignant cells, 48 h, read-out: LC50 184B5
[7] = 184B5, nonmalignant cells, 48 h

SMILES	Compound-induced cell death after preincubation with wortmannin (MCF-7 [1])	Compound-induced cell death after preincubation with Z-VAD-FMK (MCF-7 [1])	activity at 10 µM (MCF-7 [2]) [%]	GI50 (MCF-7 [2]) [µM]	CC50 (MCF-7 [2]) [µM]	IC (TGI) (MCF-7 [2]) [µM]	GI50 (MCF-7 [3]) [µM]	GI50 (184B5; 184B5, 48 h) [µM]	IC (TGI) (184B5; 184B5, 48 h) [µM]	Selectivity index (SI) = GI50 (184B5)/GI50 (MCF-7) (184B5; breast)	CC50 at 48 h [4, 6] [µM]	Cell death (subdiploid cells) (MCF-7 [5])	GI50 (184B5; [7]) [µM]	IC (TGI) (184B5; [7]) [µM]	LC50 (50% lethal concentration) [4, 6] [µM]	LC50 (50% lethal concentration) at 48 h [4] [µM]
CCOP(=O)(Nc1ccc([Se]C#N)cc1)OCC [II.2d]	could not prevent cell death	prevented it	-17.2	< 1	8.4 ± 0.1	4.1 ± 0.1	0.9 ± 0.1	5.7	7.31	6.33	8.93	provoked a significant increase in the number of death cells				
N#C[Se]c1ccc(NC(=O)c2ccc(C(F)(F)F)cc2)cc1 [I.2f]	prevented cell death	did not	44.8	< 1	42.2 ± 0.8	6.2 ± 0.4	0.9					provoked a significant increase in the number of death cells	16.6	> 100	> 100	
O=C(Nc1ccc([Se][Se]c2ccc(NC(=O)c3ccc(C(F)(F)F)cc3)cc2)cc1)c1ccc(C(F)(F)F)cc1 [I.1f]	prevented cell death	did not	9.1		54.6 ± 0.7	13 ± 0.3						did not stimulate cell death	6.59	44		92.3
